Measured values: patent EP0912195B1, “VACCINE COMPRISING ANTIGENS BOUND TO CARRIERS THROUGH LABILE BONDS” (PEPSCAN SYSTEMS B.V., priority 1996, dated 1997)
Residues, ends and D or L forms follow the SMILES beside them. *: point of attachment. Palmitoyl = CCCCCCCCCCCCCCCC(=O)*

Conditions: 3 hours

Row | Structure (SMILES) | stability of thioesters during acidolytic removal of tert-butyloxy functions and/or cleavage of the resin-peptide bond
1 | CCCCCCCCCCCCCCCC(=O)SC[C@H](NC(C)=O)C(=O)N[C@@H](CO)C(=O)N[C@@H](CCC(=O)O)C(=O)N[C@H](C(=O)N[C@@H](Cc1ccccc1)C(=O)N[C@@H](CCCNC(=N)N)C(=O)N1CCC[C@H]1C(=O)NCC(=O)NCC(=O)NCC(=O)N[C@@H](CC(=O)O)C(=O)N[C@@H](CCSC)C(=O)N[C@@H](CCCNC(=N)N)C(N)=O)[C@@H](C)CC [Ac-C(palm)SEIFRPGGGDMR-NH2] (Ac-C(Palmitoyl)SEIFRPGGGDMR-NH2) | stable under all these acidic conditions
2 | CCCCCCCCCCCCCCCC(=O)SC[C@H](NC(C)=O)C(=O)N[C@H](C(=O)N[C@@H](C)C(=O)N[C@H](C(=O)N[C@@H](CCC(N)=O)C(=O)N[C@@H](CC(C)C)C(=O)N1CCC[C@H]1C(=O)N[C@@H](C)C(=O)N[C@@H](CO)C(=O)N[C@@H](Cc1ccccc1)C(N)=O)[C@@H](C)O)C(C)C [Ac-C(palm)VATQLPASF-NH2] (Ac-C(Palmitoyl)VATQLPASF-NH2) | stable under all these acidic conditions
